Laboratory results taken from paper PMC6273978, “Synthesis and Pharmacological Evaluation of Novel Pleuromutilin Derivatives with Substituted Benzimidazole Moieties” (Molecules, 2016).
Values after ≈ are worked out from the molar mass of the structure shown.

Assays:
MRSA = experiment: Oxford cup assay, zone of inhibition; type: cell-based; conditions: Staphylococcus aureus
Outline: (§1)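 Agar cup diffusion on nutrient agar with saline bacterial suspensions matched to McFarland standard. Compounds were dosed at 320 and 160 µg/mL, and inhibition zones were recorded following 24–36 h at 37 °C.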

S. haemolyticus = experiment: Oxford cup assay, zone of inhibition; type: cell-based; conditions: Staphylococcus haemolyticus
Outline: as §1

S. aureus = experiment: Oxford cup assay, zone of inhibition; type: cell-based; conditions: Staphylococcus aureus
Outline: as §1

E. coli = experiment: Oxford cup assay, zone of inhibition; type: cell-based; conditions: Escherichia coli
Outline: as §1

S. warneri = experiment: Oxford cup assay, zone of inhibition; type: cell-based; conditions: Staphylococcus warneri
Outline: as §1

[1] = system: Staphylococcus aureus (S. aureus); experiment: MIC testing, agar dilution method; type: cell-based; conditions: 36.5 °C, 24–48 h
Outline: (§2)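 MIC is the lowest drug level in Mueller-Hinton agar that inhibits growth of spotted bacteria after 24–48 h at 36.5 °C. Test solutions were serially halved from 1280 µg/mL to 0.625 µg/mL and poured into agar. Inocula were 10^5–10^6 CFU/mL, and runs were done in triplicate.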

[2] = system: Staphylococcus vitulinus (S. vitulinus); experiment: MIC testing, agar dilution method; type: cell-based; conditions: Mammaliicoccus vitulinus, 36.5 °C, 24–48 h
Outline: as §2

CYP3A4 = target: T1, CYP3A4 (Homo sapiens, UniProt P08684); experiment: Cytochrome P450 inhibition cocktail assay, human liver microsomes; type: in vitro ADME; conditions: probe midazolam, metabolite 1-OH-midazolam
T1 construct: Twenty microliters of human liver microsomes (final concentration of 0.3 mg/mL); from tissue; host or cells: human liver microsomes
Experimental: (§3) The cytochrome P450 (CYP) proteins form a large family of heme proteins that catalyze many reactions involved xenobiotic metabolism and biosynthesis of cholesterol, steroids, and other lipid components. Some chemicals could affect the disposition of conventional pharmaceuticals through the inhibition of CYP450 enzymes. […] The selective probe substrate concentrations were prepared near to its respective Km value, and the compound 3 concentration range is from […].
(§4) Compound 3 was screened for its ability to inhibit cytochrome P450 using a cocktail assay described previously. Briefly, 50 μL of compound 3 was added to 96-well plates, with final concentrations of 0.05, 0.1, 0.5, 1, 10, 50, and 100 μM, respectively. Twenty microliters of human liver microsomes (final concentration of 0.3 mg/mL) and 20 μL of probe substrates (Table 3) in 0.1 M Tris were added. After preincubation at 37 °C for 10 min, 10 μL of NADPH was added (final concentration of 1 mM), and the reaction started to incubate at the same temperature for 15 min. The reactions were then quenched by the addition of 100 μL of acetonitrile with a mixture of propranolol and nadolol (50 nM) used as an internal standard. After reactions were finished, the plates were centrifuged and the supernatants were analyzed for the five metabolites (Table 3) by LC/MS/MS.

CYP2C19 = target: T2, CYP2C19 (Homo sapiens, UniProt P33261); experiment: as above; type: in vitro ADME; conditions: probe mephenytoin, metabolite 4-OH-S-mephenytoin
T2 construct: Twenty microliters of human liver microsomes (final concentration of 0.3 mg/mL); from tissue; host or cells: human liver microsomes
Experimental: as §3, §4

CYP2C9 = target: T3, CYP2C9 (Homo sapiens, UniProt P11712); experiment: as above; type: in vitro ADME; conditions: probe diclofenac, metabolite 4-OH-diclofenac
T3 construct: Twenty microliters of human liver microsomes (final concentration of 0.3 mg/mL); from tissue; host or cells: human liver microsomes
Experimental: as §3, §4

CYP2D6 = target: T4, CYP2D6 (Homo sapiens, UniProt P10635); experiment: as above; type: in vitro ADME; conditions: probe dextromethorphan, metabolite dextrophan
T4 construct: Twenty microliters of human liver microsomes (final concentration of 0.3 mg/mL); from tissue; host or cells: human liver microsomes
Experimental: as §3, §4

CYP1A2 = target: T5, CYP1A2 (Homo sapiens, UniProt P05177); experiment: as above; type: in vitro ADME; conditions: probe phenacetin, metabolite acetaminophen
T5 construct: Twenty microliters of human liver microsomes (final concentration of 0.3 mg/mL); from tissue; host or cells: human liver microsomes
T5 sequence (P05177 1-516): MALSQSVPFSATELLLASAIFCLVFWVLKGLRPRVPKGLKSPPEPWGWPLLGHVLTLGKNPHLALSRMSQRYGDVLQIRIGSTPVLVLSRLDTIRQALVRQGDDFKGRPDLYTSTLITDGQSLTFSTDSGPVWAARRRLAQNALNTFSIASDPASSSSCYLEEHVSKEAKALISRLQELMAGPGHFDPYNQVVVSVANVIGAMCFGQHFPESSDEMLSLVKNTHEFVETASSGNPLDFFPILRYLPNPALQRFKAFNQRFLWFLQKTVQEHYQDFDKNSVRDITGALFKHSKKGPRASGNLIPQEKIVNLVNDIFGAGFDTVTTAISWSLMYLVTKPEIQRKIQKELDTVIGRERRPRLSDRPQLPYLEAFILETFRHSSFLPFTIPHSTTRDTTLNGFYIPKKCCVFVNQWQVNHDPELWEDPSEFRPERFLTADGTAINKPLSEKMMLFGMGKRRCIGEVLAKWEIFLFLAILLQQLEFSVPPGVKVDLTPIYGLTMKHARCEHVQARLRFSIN
Experimental: as §3, §4

T1 sequence (P08684 whole entry): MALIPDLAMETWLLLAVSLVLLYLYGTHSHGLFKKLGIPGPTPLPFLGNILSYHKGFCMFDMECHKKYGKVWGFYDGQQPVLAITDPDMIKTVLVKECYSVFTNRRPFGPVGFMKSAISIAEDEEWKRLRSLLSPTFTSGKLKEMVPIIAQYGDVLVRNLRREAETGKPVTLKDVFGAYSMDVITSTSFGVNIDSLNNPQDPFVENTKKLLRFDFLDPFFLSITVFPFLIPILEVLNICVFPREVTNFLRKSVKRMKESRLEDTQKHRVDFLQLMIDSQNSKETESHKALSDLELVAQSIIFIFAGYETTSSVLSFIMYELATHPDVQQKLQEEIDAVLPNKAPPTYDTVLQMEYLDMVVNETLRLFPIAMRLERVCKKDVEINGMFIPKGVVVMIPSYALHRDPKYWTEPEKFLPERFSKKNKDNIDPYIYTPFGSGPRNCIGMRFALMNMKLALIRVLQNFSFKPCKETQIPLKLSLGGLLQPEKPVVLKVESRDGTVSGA
T3 sequence (P11712 whole entry): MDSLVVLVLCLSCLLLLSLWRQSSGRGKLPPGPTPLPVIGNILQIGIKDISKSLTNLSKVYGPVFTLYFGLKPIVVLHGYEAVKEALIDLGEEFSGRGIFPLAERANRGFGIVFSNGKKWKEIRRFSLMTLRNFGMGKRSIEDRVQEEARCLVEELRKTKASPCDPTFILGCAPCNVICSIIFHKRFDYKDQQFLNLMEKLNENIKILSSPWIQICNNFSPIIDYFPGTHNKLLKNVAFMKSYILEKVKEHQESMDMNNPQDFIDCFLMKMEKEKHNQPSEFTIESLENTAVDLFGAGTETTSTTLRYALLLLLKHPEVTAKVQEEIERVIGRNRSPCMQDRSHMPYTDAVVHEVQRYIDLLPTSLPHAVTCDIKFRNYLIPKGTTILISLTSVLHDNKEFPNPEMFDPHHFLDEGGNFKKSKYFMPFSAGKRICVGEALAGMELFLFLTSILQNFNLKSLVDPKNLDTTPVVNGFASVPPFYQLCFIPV
T4 sequence (P10635 whole entry): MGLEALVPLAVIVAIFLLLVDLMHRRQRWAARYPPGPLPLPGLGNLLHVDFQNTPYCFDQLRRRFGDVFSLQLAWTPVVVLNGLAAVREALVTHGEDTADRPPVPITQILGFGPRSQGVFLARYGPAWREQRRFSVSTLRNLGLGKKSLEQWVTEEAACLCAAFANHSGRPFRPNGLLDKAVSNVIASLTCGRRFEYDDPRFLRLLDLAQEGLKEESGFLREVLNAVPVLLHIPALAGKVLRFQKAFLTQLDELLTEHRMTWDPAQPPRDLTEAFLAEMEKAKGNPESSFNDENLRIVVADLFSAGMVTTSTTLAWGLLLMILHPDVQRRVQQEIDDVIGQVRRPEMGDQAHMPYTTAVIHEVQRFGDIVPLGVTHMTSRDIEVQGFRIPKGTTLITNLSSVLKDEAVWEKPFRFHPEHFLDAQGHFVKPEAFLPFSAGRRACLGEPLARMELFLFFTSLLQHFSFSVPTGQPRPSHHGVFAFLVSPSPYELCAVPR
T2 sequence (P33261 whole entry): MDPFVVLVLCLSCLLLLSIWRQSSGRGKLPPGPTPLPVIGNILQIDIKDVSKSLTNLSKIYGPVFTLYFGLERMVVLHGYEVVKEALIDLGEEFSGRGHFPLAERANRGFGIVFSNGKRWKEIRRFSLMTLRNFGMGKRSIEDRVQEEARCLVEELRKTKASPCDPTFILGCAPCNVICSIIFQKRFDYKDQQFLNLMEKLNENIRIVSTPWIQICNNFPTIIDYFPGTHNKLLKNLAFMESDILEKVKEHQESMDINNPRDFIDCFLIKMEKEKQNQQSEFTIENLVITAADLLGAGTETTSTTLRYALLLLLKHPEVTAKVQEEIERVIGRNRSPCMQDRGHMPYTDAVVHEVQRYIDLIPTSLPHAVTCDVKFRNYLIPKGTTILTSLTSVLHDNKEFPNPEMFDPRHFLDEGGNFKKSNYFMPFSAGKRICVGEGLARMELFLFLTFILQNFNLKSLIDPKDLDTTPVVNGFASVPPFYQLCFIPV

C=C[C@]1(C)C[C@@H](OC(=O)CSc2nc3ccc(N)cc3[nH]2)[C@]2(C)[C@H](C)CC[C@]3(CCC(=O)[C@H]32)[C@@H](C)[C@@H]1O [Compound 3, 14-O-((5-Amino-benzimidazole-2-yl)thioacetyl) Mutilin]
zone of inhibition at 160 µg/mL (MRSA; 160 µg/mL): 25.4 mm
zone of inhibition at 320 µg/mL (MRSA; 320 µg/mL): 30.6 mm
zone of inhibition at 160 µg/mL (S. haemolyticus; 160 µg/mL): 30.3 mm
zone of inhibition at 320 µg/mL (S. haemolyticus; 320 µg/mL): 33 mm
zone of inhibition at 160 µg/mL (S. aureus; 160 µg/mL): 27.3 mm
zone of inhibition at 320 µg/mL (S. aureus; 320 µg/mL): 29.6 mm
zone of inhibition at 160 µg/mL (E. coli; 160 µg/mL): 21.4 mm
zone of inhibition at 320 µg/mL (E. coli; 320 µg/mL): 25.5 mm
zone of inhibition at 160 µg/mL (S. warneri; 160 µg/mL): 28 mm
zone of inhibition at 320 µg/mL (S. warneri; 320 µg/mL): 32.3 mm
MIC [1]: 0.156 µg/mL (≈ 0.297 µM)
MIC [2]: 0.156 µg/mL (≈ 0.297 µM)
IC50 (CYP3A4): 1.69 µM
IC50 (CYP2C19): > 50 µM
IC50 (CYP2C9): 10.7 µM
IC50 (CYP2D6): > 100 µM
IC50 (CYP1A2): > 50 µM
